Where two headings read alike, the source gives them in different places.

This note sets out measurements from EP3299021A1 (priority 2016, dated 2018).

For test [1], the system named is mitochondrial respiration chain. The class given is biochemical, mouse. The protocol: The mitochondrial integrity and function was analysed by measuring the oxygen consumption of the different complexes in the mitochondrial respiration chain. Therefore, the isolation and oxygen consumption of the mitochondria were based on the protocol of Frezza et al. (Organelle isolation: functional mitochondria from mouse liver, muscle and cultured fibroblasts. Nat Protoc, 2 (2): 287-295, 2007.) with some modifications. All chemicals and kits were supplied by Sigma Aldrich, Germany.
The oxygen consumption was measured by a microcathode oxygen electrode (S1782, Strathkelvin Instruments, Great Britain). The electrodes were calibrated according to the manufacturer's protocol. Mitochondria (1 mg protein) were suspended in 1 ml experimental buffer ([…], 10 mM Tris/MOPS, 40 mM EGTA/Tris 4, […]). As a substrate of complexes II, III and IV, 5 mM succinate was added. The main read out is the "respiratory control ratio (RCR)" that can be calculated by the ratio of "state 3" and "state 4" respiration, which is equivalent to the ratio of ADP-dependent respiration and ADP-independent respiration. […] If the ADP was consumed completely, the slope of the oxygen consumption ("state 4" respiration) looked similar to the "state 2" slope.

In test [2] the test system is hepatic IRI. Particulars: medium dose 0.045 g STS/kg BW into tail vein.
Description: Intravital microscopy has been used to analyse the early reperfusion injury in WT and Cse^-/- mice. Assay of plasma parameters and histological staining was applied to analyse later IRI. Rhodamine 123 was injected into the tail vein 5 min before the onset of the experiment. […] The mice were monitored for 2 h without IRI in the sham control group.
In all experiments male WT and Cse^-/- mice between 10 and 12 weeks were used for a standardised hepatic IRI model. One week before the experiments started, 100 µl blood was taken from the orbital sinus. Body temperature was maintained with a heating plate. During the actual experiment, ischemia was induced in the left lateral lobe of the liver by clamping the hepatic artery and the portal vein using a microaneurysm clamp (FST, Heidelberg, Germany). This procedure results in a segmental (30 %) ischemia. […]
IVM was conducted to monitor the mitochondrial membrane potential in vivo with confocal laser scanning microscopy. Therefore, the animals remained under deep general anesthesia using isoflurane and pain reflexes were assessed to gauge the depth of anesthesia. […] Rhodamine 123 was excited at 488 nm (Argon/2 laser) and the emitted light was detected by a monochromatic filter at 530 ± 30 nm (GaAsP detector). […] The standard deviation of the Rhodamine 123 fluorescence signal was calculated to quantify the changes of the mitochondrial granularity over time. […]
The next test concerns TOM20. Particulars: for TOM20 signal: immunofluorescence, without STS 258, healthy control 672.
For test [3], the system named is hepatic IRI.
Excerpt: The mice were imported by embryonic transfer into the animal facility of the Jena University Hospital and conducted under pathogen free conditions. The original mixed Sv129/C57 background was backcrossed to a 99 % C57BL/6 background. In all experiments male WT and Cse^-/- mice between 10 and 12 weeks were used for a standardised hepatic IRI model. […] Body temperature was maintained with a heating plate. During the actual experiment, ischemia was induced in the left lateral lobe of the liver by clamping the hepatic artery and the portal vein using a microaneurysm clamp (FST, Heidelberg, Germany). This procedure results in a segmental (30 %) ischemia. After 1 h, the clamp was removed to initiate the reperfusion. The reperfusion time points were set to 1 h or 24 h. Subsequently, the mice were sacrificed and both, plasma and organs, were harvested. During deep isoflurane (Forene®, Abb-Vie Deutschland GmbH & Co. KG, Ludwigshafen, Germany) anaesthesia, the blood was collected and plasma was generated. Next, the liver, the kidney and the spleen were removed and washed with saline.
The analysis of the ultra-structure of the tissue was performed by TEM. Therefore, the liver had to be perfused with 4 ml/min for 2 min with warm, oxygenated KBH to wash out all blood as described in section 3.4. […]
A further test deals with mitochondria. As to conditions: low dose STS, 1 h after reperfusion (Fig. 5a).
A further test has as its system liver. As to conditions: 1 h ischemia and 1 h reperfusion, all STS doses (Fig. 4b).

Description for TOM20: In addition to autophagy marker proteins, the translocase of the mitochondrial outer membrane 20 (TOM20) was analysed. […] To detect a possible specific loss of TOM20 in liver cells, immunofluorescence staining was carried out.
Finally, the liver tissue samples were stored for histological and molecular biological analysis.
The total protein content was isolated from the frozen tissue samples by an protein isolation buffer pH 7.5 (10 mM Tris, 250 mM saccharose, 1 mM EDTA, 1 % phosphatase-inhibitor, 1 % protease-inhibitor). To keep organelles and membranes as intact as possible, a tightly fitting Dounce homogenizer (Kimble Chase, Mexico) was used resulting in a mild and mechanical homogenisation. Afterward, the homogenate was centrifuged at 900 x rcf for 10 min at 4 °C. The protein content in the post nucleus supernatant was determined using the BCA assay (Sigma Aldrich, Hamburg, Germany). In addition, the samples were incubated for 15 min at room temperature with Laemmli sample buffer to denature the protein structure.
Afterward, the proteins were separated by size using 4-12 % SDS-gels (NuPAGE® Bis-Tris Gel, Invitrogen, Germany) in a SDS-Gel electrophoresis (XCellSureLock® Mini Gel chamber and NuPAGE®MOPS SDS Running Buffer, Invitrogen, Germany). Subsequently, the proteins were transferred to a PVDF-membrane (Roth, Germany). A blocking solution containing tris-buffered saline and tween 20 (TBST) pH 7.5 (10 mM Tris, 100 mM NaCl, 0.1 % Tween 20) 5 % BSA or skim milk (Sigma-Aldrich, Germany) was used to block unspecific bindings. The membrane was incubated with this solution for 1 h at room temperature. Next, the membrane was incubated with a rabbit polyclonal LC3B antibody (Cell Signaling Technology®, Danvers, USA 1:500 dilution), a rabbit polyclonal TOM20 antibody (Abcam®, Cambridge, UK 1:500 dilution) or a rabbit polyclonal β-actin antibody (Abcam®, Cambridge, UK 1:2,000 dilution) overnight at 4 °C. All primary antibodies were diluted in the blocking solution depending on the manufacture's protocol. After washing the membrane with TBST buffer 3 times, a horseradish peroxidase (HRP)-conjugated secondary antibody (1:5,000) was added for 1 h at room temperature. In the last step, the membrane was washed again with TBST buffer 3 times.
Detection of the secondary antibody by chemiluminescence was performed using HRP substrate (Immobilon Western HRP Substrat, Merck Millipore, USA) by the LAS3000 (GE Healthcare, Frankfurt, Germany). Finally, the target proteins were quantified by densitometric analysis in the software ImageJ (National Institutes of Health, USA). B-actin served as loading control to calculate the differences in the protein expression between the groups.
Immunofluorescence staining was used to investigate the TOM20 localisation. […]
Description for liver: To implement the ex vivo IRI model, the liver was perfused via the portal vein with oxygenated Krebs-Henseleit buffer for 5 min one-way and 5 min in reverse. Afterwards, the pump was stopped for 1 h followed by 1 h reperfusion. During reperfusion, tissue samples were collected every 10 min.
The method is based on the reaction of GSH with 5,5'-dithiobis(2-nitrobenzoic acid) (DTNB), whereby 2-nitro-5-mercaptobenzoic acid is cleaved, which then leads to a color change. The frozen liver samples were homogenised in a 0.2 M sodium phosphate buffer (pH 8), containing 0.005 M EDTA, and four volumes of 25 % metaphosphoric acid. Subsequently, the samples were centrifuged at 9000 x rcf for 30 min at 4 °C. The absorbance was read at 412 nm using a Spekol 1100 (Carl Zeiss GmbH, Jena, Germany). A standard curve was performed with GSH.
In addition, the GSSG concentration was assessed fluorometrically (fluorescencespectrophotometer F-2000, Hitachi, Tokio, Japan). […] The fluorescence intensity is proportional to the GSSG concentration. […]
Therefore, a monovascular perfusion of the liver through the portal vein (anterograde perfusion) was carried out. […] During the whole experiment, the pressure within the liver was monitored via a pressure transducer (Biopac®Systems Inc, MP150, CA, USA) to control the physiological pressure of the liver. […]

Turning to sodium hydrogen sulphide [NaHS], in test [1] (200 µM tert-BOOH + 1 µM NaHS (Fig. 3b)), the “decline of RCR induced by tert-BOOH oxidative stress” value is reported as “compensated the decline of RCR”. For the same substance, the mitochondrial respiratory activity result in test [1] (at low doses (Fig. 3a)) is “stimulated mitochondrial respiratory activity”. For the same substance, in test [1] (isolated mitochondria, 0-100 µM NaHS, no oxidative stress (Fig. 3a)), the “concentration that induced inhibitory effects on respiratory control ratio (RCR)” value worked out at 100 µM.
sodium thiosulfate [STS]: the mitochondrial granularity entry is listed as “This effect was also detected” in the test with hepatic IRI [2] (WT and Cse-/- mice, end of reperfusion (120 min)); “pronounced recovery of the mitochondrial granularity” with hepatic IRI [2] (WT mice, beginning of reperfusion (60 min)). For the same substance, the “TOM20 levels by Western blot” value in the test on TOM20 (healthy controls vs IRI treated livers vs STS treated groups (Fig. 6a)) was “no significant differences”. The values for the TOM20 signal with TOM20 (high dose 0.45 g STS/kg BW), in the test with TOM20 (low dose 0.0045 g STS/kg BW) and with TOM20 (medium dose 0.045 g STS/kg BW) were 194 positive cells per mm^2, 305 positive cells per mm^2 and 422 positive cells per mm^2, respectively. Moreover, the “RCR at higher concentrations” value in test [1] is listed as “decreased RCR”. Besides, the mitochondrial respiratory activity result in test [1] is “stimulated mitochondrial respiratory activity”. The “mitochondrial ultrastructure by transmission electron microscopy” value is on record as “electron-dense accumulation” in the test with hepatic IRI [3] (Cse-/- mice after IRI with STS treatment (Fig. 8b)) and “normal mitochondrial architecture” with hepatic IRI [3] (WT mice after IRI with STS treatment (Fig. 8b)). Besides, the “mitochondrial structure by transmission electron microscopy” value in the test on mitochondria is reported as “retained their normal structure”. For the same substance, in the test with liver, the “amount of total glutathione” value was “significantly decreased by IRI independently on STS treatment”.
